For 14 compounds, IC50 results are on record in patent publication US20220257774A1, “AROMATIC AMINE AR AHD BET TARGETING PROTEIN DEGRADATION CHIMERA COMPOUND AND USE” (HINOVA PHARMACEUTICALS INC., priority 2019, published 2022).

In one experiment the test system is LNCaP/AR cells. In words: Inhibition of the proliferation of LNCap/AR cells (CCK-8). Format: cell-based. Particulars: 144 h; LNCaP/AR cells, 6 days culture, CCK-8; read-out: LNCap/AR IC50. The source says: 1. Biological Assay of the Inhibition on the Proliferation of LNCap/AR Cells
(1) Experimental materials and instruments: LNCaP/AR cell line and 22RV1 cell line (provided by Sichuan Kangcheng Biotechnology Co., Ltd.) Fetal bovine serum FBS (Gibco, Cat. No. 10099-141) 0.01M PBS (Biosharp, Cat. No. 162262) RIPM1640 medium (Hyclone, Cat. No. 308090.01) Penicillin-Streptomycin (Hyclone, Cat. No. SV30010) Cell counting kit-8 (Signalway Antibody, Cat. No. CP002) DMSO (Sigma, Cat. No. D5879) Centrifuge Tube, 15 ml (Excell Bio, Cat. No. CS015-0001) Cell Culture Dish, (Excell Bio, Cat. No. CS016-0128) 96-well cell culture plate (Corning, Cat. No. 3599) Microplate reader (Thermo Multiskan MK3 type)
(2) Experimental Methods:
a. Preparation of Buffer Cell culture medium: RIPM1640 medium, 10% FBS, 1% Pen Strep: PBS buffer: PBS powder was dissolved in 2 L of ultrapure water and sterilized. b. Experimental Procedures 1) LNCaP/AR cells were subcultured in cell culture media, and then the cells in good growth condition were seeded in a 96-well plate at 80 μL/well (1000 cells/well), and cultured overnight in a 37° C., 5% CO2 cell incubator. 2) The drug was prepared into a 10 mM stock solution with dimethyl sulfoxide (DMSO). Prior to use, the stock solution was diluted in a ratio of […] with DMSO, and then diluted at a 3-fold gradient to obtain 9 serial concentrations. Then, each concentration of compound was further diluted in a ratio of 1:200 with the culture medium (to ensure that the DMSO concentration in the culture system was 0.1%), and two wells were set for each concentration. 20 μL of the diluted compound solution was added to the well of the cell culture (with a final concentration of 10 μM, 3.3 μM, 1.1 μM . . . ), and then the plate was gently tapped to thoroughly mix. In addition, the experiment included 3 negative control wells only containing cells and 3 blank control wells only containing culture medium (6 wells were each added with DMSO diluted in a ratio of 1:200 with 20 μL of culture medium). c. Result Detection: 1) After culturing for 6 days, 10 μL of CCK-8 was added to each well, and the plate was further incubated for 1 h in a 37° C., 5% CO2 cell incubator. 2) The absorbance (OD value) was measured at 450 nm with a multifunctional microplate reader. 3) The data was analyzed by the Dose-response-inhibition equation in the software GraphPad Prism5, and the IC50 value was obtained. 2. Biological assay of the inhibition on the proliferation of other drug-resistant prostate cancer cells
Turning to `Cc1ccc(-c2c(C)noc2C)cc1N(CCCCCOCC(=O)N[C@H](C(=O)N1C[C@H](O)C[C@H]1C(=O)N[C@@H](C)c1ccc(-c2scnc2C)cc1)C(C)(C)C)c1ccc(-n2ccnc2)c(Cl)c1` [Compound 12, (2S,4R)-1-((S)-2-(2-((5-((3-chloro-4-(1H-imidazol-1-yl)phenyl)(5-(3,5-dimethylisoxazol-4-yl)-2-methylphenyl)amino)n-pentyl)oxy)acetylamino)-3,3-dimethylbutyryl)-4-hydroxy-N—((S)-1-(4-(4-methylthiazol-5-yl)phenyl)ethyl) pyrrolidinyl-2-formamide], the IC50 was in the range of 101 to 500 nM.

Turning to `Cc1ccc(-c2c(C)noc2C)cc1N(CCCCCOCC(=O)N[C@H](C(=O)N1C[C@H](O)C[C@H]1C(=O)N[C@@H](C)c1ccc(-c2scnc2C)cc1)C(C)(C)C)c1ccc(-n2ccnc2)c(F)c1` [Compound 14, (2S,4R)-1-((S)-2-(2-((5-((3-fluoro-4-(1H-imidazol-1-yl)phenyl)(5-(3,5-dimethylisoxazol-4-yl)-2-methylphenyl)amino)n-pentyl)oxy)acetylamino)-3,3-dimethylbutyryl)-4-hydroxy-N—((S)-1-(4-(4-methylthiazol-5-yl)phenyl)ethyl)pyrrolidinyl-2-formamide], the IC50 is above 2000 nM.

For `Cc1ccc(-c2c(C)noc2C)cc1N(CCCCCOCC(=O)N[C@H](C(=O)N1C[C@H](O)C[C@H]1C(=O)N[C@@H](C)c1ccc(-c2scnc2C)cc1)C(C)(C)C)c1ccc(F)c(-n2ccnc2)c1` [Compound 16], the IC50 is above 2000 nM.

For the compound `CC(=O)O[C@@H]1C[C@@H](C(=O)N[C@@H](C)c2ccc(-c3scnc3C)cc2)N(C(=O)[C@@H](NC(=O)COCCCCCN(c2ccc(-n3ccnc3)cc2)c2cc3c(C)noc3cc2C)C(C)(C)C)C1` [Compound 17, (3R,5S)-1-((S)-2-(2-((5-((4-(1H-imidazol-1-yl)phenyl)(3,6-dimethylbenzo[d]isoxazol-5-yl)amino)pentyl)oxy)acetamido)-3,3-dimethylbutyryl)-5-((S)-1-(4-(4-methylthiazol-5-yl)phenyl)ethyl)carbamoyl)pyrrolidine-3-yl acetate], the IC50 is above 2000 nM.

As to `CC(=O)O[C@@H]1C[C@@H](C(=O)N[C@@H](C)c2ccc(-c3scnc3C)cc2)N(C(=O)[C@@H](NC(=O)COCCCCCN(c2ccc(-n3ccnc3)cc2)c2cc3onc(C)c3cc2C)C(C)(C)C)C1` [Compound 18, (3R,5S)-1-((S)-2-(2-((5-((4-(1H-imidazol-1-yl)phenyl)(3,5-dimethylbenzo[d]isoxazol-6-yl)amino)pentyl)oxy)acetamido)-3,3-dimethylbutyryl)-5-((S)-1-(4-(4-methylthiazol-5-yl)phenyl)ethyl)carbamoyl)pyrrolidine-3-yl acetate], the IC50 is above 2000 nM.

Consider `Cc1ccc(-c2c(C)noc2C)cc1N(CCCCCOCC(=O)N[C@H](C(=O)N1C[C@H](O)C[C@H]1C(=O)N[C@@H](C)c1ccc(-c2scnc2C)cc1)C(C)(C)C)c1ccc(-n2ccnn2)c(Br)c1` [Compound 19], for which the IC50 is below 100 nM.

In the case of `CC(=O)O[C@@H]1C[C@@H](C(=O)N[C@@H](C)c2ccc(-c3scnc3C)cc2)N(C(=O)[C@@H](NC(=O)COCCCCCN(c2ccc(-n3ccnn3)c(Br)c2)c2cc(-c3c(C)noc3C)ccc2C)C(C)(C)C)C1` [Compound 20, (3R,5S)-1-((S)-2-(2-((5-((3-bromo-4-(1H-1,2,3-triazol-1-yl)phenyl)(5-(3,5-dimethylisoxazol-4-yl)-2-methylphenyl)amino)pentyl)oxy)acetamido)-3,3-dimethylbutyryl)-5-((S)-1-(4-methylthiazol-5-yl)phenyl)ethyl)carbamoyl)pyrrolidine-3-yl acetate], the IC50 was below 100 nM.

For `CC(=O)O[C@@H]1C[C@@H](C(=O)N[C@@H](C)c2ccc(-c3scnc3C)cc2)N(C(=O)[C@@H](NC(=O)COCCCCCN(c2ccc(-n3ccnc3)c(C(F)(F)F)c2)c2cc(-c3c(C)noc3C)ccc2C)C(C)(C)C)C1` [Compound 22, (3R,5S)-1-((S)-2-(2-((5-((4-(1H-imidazol-1-yl)-3-(trifluoromethyl)phenyl)(5-(3,5-dimethylisoxazol-4-yl)2-methylphenyl)amino)pentyl)oxy)acetamido)-3,3-dimethylbutyryl)-5-((S)-1-(4-methylthiazol-5-yl)phenyl)ethyl)carbamoyl)pyrrolidine-3-yl acetate], the IC50 lay within 501 to 2000 nM.

For `Cc1ccc(-c2c(C)noc2C)cc1N(CCC1CCN(CC(=O)N[C@H](C(=O)N2C[C@H](O)C[C@H]2C(=O)N[C@@H](C)c2ccc(-c3scnc3C)cc2)C(C)(C)C)CC1)c1ccc(-n2ccnc2)c(Br)c1` [Compound 24], the IC50 was above 2000 nM.

On to `Cc1ccc(-c2c(C)noc2C)cc1N(CCCCCOCC(=O)Nc1cccc2c1CN(C1CCC(=O)NC1=O)C2=O)c1ccc(-n2ccnc2)c(Br)c1` (centres unmarked) [Compound 25, 2-((5-((3-Bromo-4-(1H-imidazol-1-yl)phenyl)(5-(3,5-Dimethylisoxazol-4-yl)-2-methylphenyl)amino)pentyl)oxy)-N-(2-(2,6-dioxopiperidin-3-yl)-1-oxoisoindol-4-yl)acetamide], for which the IC50 was above 2000 nM.

The same experiment, now with this note: LNCaP/AR cells, 6 days culture, CCK-8; read-out: LNCap/AR IC50.
As to `CC(=O)O[C@@H]1C[C@@H](C(=O)N[C@@H](C)c2ccc(-c3scnc3C)cc2)N(C(=O)[C@@H](NC(=O)CN2CCC(CCN(c3ccc(-n4ccnc4)c(Br)c3)c3cc(-c4c(C)noc4C)ccc3C)CC2)C(C)(C)C)C1` [Compound 23, (3R,5S)-1-((S)-2-(2-(4-(2-((3-Bromo-4-(1H-imidazol-1-yl)phenyl)(5-(3,5-dimethylisoxazol-4-yl)-2-methylphenyl)amino)ethyl)piperidin-1-yl)acetamido)-3,3-dimethylbutanol)-5-((S)-1-(4-methylthiazol-5-yl)phenyl)ethyl)carbamoyl)pyrrolidine-3-yl acetate], the IC50 is above 2000 nM.

Staying with this experiment, now noted: LNCaP/AR, 144 h, read-out: LNCap/AR IC50.
Consider `CC(=O)O[C@@H]1C[C@@H](C(=O)N[C@@H](C)c2ccc(-c3scnc3C)cc2)N(C(=O)[C@@H](NC(=O)COCCCCCN(c2ccc(-n3ccnc3)c(F)c2)c2cc(-c3c(C)noc3C)ccc2C)C(C)(C)C)C1` [Compound 13, (3R,5S)-1-((S)-2-(2-((5-((3-fluoro-4-(1H-imidazol-1-yl)phenyl)(5-(3,5-dimethylisoxazol-4-yl)-2-methylphenyl)amino)n-pentyl)oxy)acetylamino)-3,3-dimethylbutyryl)-5-(((S)-1-(4-(4-methylthiazol-5-yl)phenyl)ethyl)formylamino)pyrrolidinyl-3-acetate], for which the IC50 was above 2000 nM.

For `CC(=O)O[C@@H]1C[C@@H](C(=O)N[C@@H](C)c2ccc(-c3scnc3C)cc2)N(C(=O)[C@@H](NC(=O)COCCCCCN(c2ccc(F)c(-n3ccnc3)c2)c2cc(-c3c(C)noc3C)ccc2C)C(C)(C)C)C1` [Compound 15], the IC50 was above 2000 nM.

In the case of `Cc1ccc(-c2c(C)noc2C)cc1N(CCCCCOCC(=O)N[C@H](C(=O)N1C[C@H](O)C[C@H]1C(=O)N[C@@H](C)c1ccc(-c2scnc2C)cc1)C(C)(C)C)c1ccc(-n2ccnc2)c(C(F)(F)F)c1` [Compound 21, (2S,4R)-1-((S)-2-(2-((5-((4-(1H-imidazol-1-yl)-3-(trifluoromethyl)phenyl)(5-(3,5-dimethylisoxazol-4-yl)-2-methylphenyl)amino)pentyl)oxy)acetamido)-3,3-dimethylbutyryl)-4-hydroxy-N—((S)-1-(4-(4-methylthiazol-5-yl)phenyl)ethyl)pyrrolidine-2-carboxamide], the IC50 lay within 501 to 2000 nM.
